The values that follow come from ChEMBL document CHEMBL1201862, “PubChem BioAssay data set” (2004).

Among the test systems are EKVX; 786-0; MDA-MB-231; SK-MEL-2; SN12C; MOLT-4; OVCAR-5; NCI-H460; U-251; Malme-3M; K562; SF-295; RXF 393; SNB-19; OVCAR-4; NCI-H23; PC-3; SK-MEL-5; T47D; HOP-92.
Holding throughout (assay): NCI anticancer screen, dose series, 48 h

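Test compounds were applied to cells in 96-well plates for 48 hours at 5 doses. Here, GI50 denotes the concentration required for 50% inhibition of growth.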 Active and inactive are the calls of the source. Cut-off read from the data, not from the text of the source: active = GI50 up to about 1.1 µM and inactive = higher.

`CCN(CC)C(=S)SC(C(=O)Nc1nnc(-c2ccccc2)o1)c1ccccc1` (centres undefined): the GI50 was 18.4 µM (inactive) in the assay with EKVX; 15.8 µM (inactive) in the assay on 786-0; 34.1 µM (inactive) in the assay with MDA-MB-231; 18.1 µM (inactive) with SK-MEL-2; 10.3 µM (inactive) with SN12C; 2.88 µM (inactive) with MOLT-4. In addition, the GI50 was 23.1 µM (inactive) in the assay on OVCAR-5; 9.1 µM (inactive) with NCI-H460; 16.1 µM (inactive) in the assay on U-251; 20.4 µM (inactive) in the assay with Malme-3M; 15.7 µM (inactive) in the assay with K562; 15.6 µM (inactive) in the assay on SF-295. Further, the GI50 with RXF 393 is 16.2 µM (inactive); with SNB-19 it was 29.8 µM (inactive); in the assay on OVCAR-4 it was 25.9 µM (inactive); in the assay on NCI-H23 it was 15.4 µM (inactive); in the assay on PC-3 it was 19.3 µM (inactive); in the assay with SK-MEL-5, 14.6 µM (inactive). In the assay with T47D, the GI50 was 23.7 µM (inactive).

In the case of `COc1ccc(-c2nc(O)c3ccccc3n2)cc1OC`, the GI50 with EKVX is 18.1 µM (inactive); with 786-0, 36.1 µM (inactive); in the assay with MDA-MB-231 it was 24.4 µM (inactive); in the assay with SK-MEL-2, 98.4 µM (inactive); in the assay on SN12C, 26.5 µM (inactive); in the assay on MOLT-4 it was > 100 µM (inactive). The GI50 with OVCAR-5 was > 100 µM (inactive); in the assay on NCI-H460 it was > 100 µM (inactive); with U-251 it was 23.1 µM (inactive); in the assay on Malme-3M, > 100 µM (inactive); with K562, > 100 µM (inactive); in the assay with SF-295 it was 50.8 µM (inactive). The GI50 with RXF 393 was 26.4 µM (inactive); with SNB-19 it was 31.2 µM (inactive); in the assay with OVCAR-4 it was > 100 µM (inactive); with NCI-H23 it was > 100 µM (inactive); in the assay with PC-3, > 100 µM (inactive); in the assay with SK-MEL-5, > 100 µM (inactive). Moreover, the GI50 with T47D was 30.3 µM (inactive).

In the case of `CN1C(=O)C2(C=CC(O)CC2)c2ccccc21` (centres undefined), the GI50 in the assay with EKVX, with 786-0, in the assay on MDA-MB-231, in the assay on SK-MEL-2, with SN12C and with MOLT-4 was > 100 µM (inactive) in each case. For the same molecule, the GI50 in the assay on OVCAR-5, with NCI-H460, in the assay with U-251, with K562, in the assay on SF-295 and in the assay on SNB-19 was > 100 µM (inactive) in each case. In addition, the GI50 in the assay with OVCAR-4, in the assay on NCI-H23, in the assay with PC-3, with SK-MEL-5, with HOP-92 and with T47D was > 100 µM (inactive) each time.

Take `CCCCCCCCCCCCCCCCCCOCC(CO[PH](=O)O)OCCCCCCCCCCCCCCCCCC` (centres undefined): the GI50 in the assay on EKVX, with 786-0, with MDA-MB-231, in the assay with SK-MEL-2, in the assay with SN12C and with MOLT-4 was > 50 µM (inactive) each time. Besides, the GI50 in the assay on OVCAR-5, in the assay on NCI-H460, in the assay with U-251, in the assay with K562, in the assay with RXF 393 and with SNB-19 was > 50 µM (inactive) in each case. The GI50 in the assay with OVCAR-4, in the assay with PC-3, with SK-MEL-5, with HOP-92 and in the assay with T47D was > 50 µM (inactive) each time.

As to `O=c1c2cc([N+](=O)[O-])cnc2sn1-c1ccc(Oc2ccccc2)cc1`, the GI50 was 70.6 µM (inactive) in the assay with EKVX; 43.5 µM (inactive) with 786-0; 22.1 µM (inactive) in the assay on MDA-MB-231; 26.7 µM (inactive) with SK-MEL-2; > 100 µM (inactive) in the assay with SN12C; > 100 µM (inactive) with MOLT-4. Also, the GI50 was 58.3 µM (inactive) with OVCAR-5; 74.1 µM (inactive) in the assay with NCI-H460; 29.9 µM (inactive) in the assay on U-251; 21.7 µM (inactive) with Malme-3M; 31 µM (inactive) in the assay on SF-295; 32.6 µM (inactive) in the assay with SNB-19. Also, the GI50 with OVCAR-4 is 25.8 µM (inactive); in the assay with NCI-H23 it was 36.4 µM (inactive); in the assay on PC-3 it was 39.9 µM (inactive); with SK-MEL-5, 88.5 µM (inactive); in the assay on HOP-92 it was 23 µM (inactive); in the assay on T47D, 10.8 µM (inactive).

As to `O=C(c1ccccc1)N1OCCC1Nc1ccc(Br)cc1` (centres undefined), the GI50 is > 10 µM (inactive) in the assay on EKVX; > 10 µM (inactive) with 786-0; > 10 µM (inactive) in the assay with MDA-MB-231; > 10 µM (inactive) with SK-MEL-2; > 10 µM (inactive) with SN12C; 4 µM (inactive) in the assay with MOLT-4. The GI50 in the assay with OVCAR-5 was > 10 µM (inactive); in the assay with NCI-H460 it was 5.45 µM (inactive); in the assay with Malme-3M it was 3.34 µM (inactive); in the assay with K562 it was 0.423 µM (active); with SF-295 it was 2.08 µM (inactive); in the assay on RXF 393, > 10 µM (inactive). Moreover, the GI50 in the assay on SNB-19 was > 10 µM (inactive); in the assay with OVCAR-4 it was > 10 µM (inactive); in the assay on NCI-H23, > 10 µM (inactive); with PC-3, 2.04 µM (inactive); in the assay with SK-MEL-5, 6.97 µM (inactive); in the assay with T47D, > 10 µM (inactive).

For the molecule `NC(CSC(c1ccccc1)(c1ccccc1)c1ccccc1)C(=O)O` (centres undefined), the GI50 in the assay with EKVX is 1.19 µM (inactive); in the assay on 786-0, 0.971 µM (active); with MDA-MB-231, 1.42 µM (inactive); in the assay with SK-MEL-2, 0.605 µM (active); in the assay with SN12C it was 1.27 µM (inactive); in the assay on MOLT-4, 1.24 µM (inactive). Besides, the GI50 was 15.4 µM (inactive) in the assay with OVCAR-5; 0.658 µM (active) in the assay on NCI-H460; 0.69 µM (active) in the assay with U-251; 2.17 µM (inactive) in the assay with Malme-3M; 0.509 µM (active) with K562; 1.22 µM (inactive) in the assay on SNB-19. Moreover, the GI50 in the assay with OVCAR-4 was 7.5 µM (inactive); in the assay on NCI-H23 it was 2.29 µM (inactive); with PC-3 it was 1.61 µM (inactive); in the assay with SK-MEL-5 it was 0.69 µM (active); with HOP-92, 7.31 µM (inactive); in the assay with T47D, 0.684 µM (active).

As for `C=CC1(CCC(Br)C(C)(C)Cl)CO1` (centres undefined), the GI50 in the assay on EKVX, in the assay with 786-0, in the assay on MDA-MB-231, in the assay with SK-MEL-2, in the assay on SN12C and in the assay on MOLT-4 was > 10 µM (inactive) each time. Moreover, the GI50 in the assay on OVCAR-5, with NCI-H460, in the assay with U-251, in the assay on Malme-3M, in the assay with K562 and in the assay on SF-295 was > 10 µM (inactive) throughout. Further, the GI50 with SNB-19, in the assay on PC-3, in the assay with SK-MEL-5, in the assay on HOP-92 and in the assay on T47D was > 10 µM (inactive) each time.

`O=c1ss/c(=N\c2ccccc2)n1-c1ccccc1`: the GI50 with EKVX is 33.7 µM (inactive); with 786-0 it was 18.3 µM (inactive); with MDA-MB-231, 25.9 µM (inactive); in the assay with SK-MEL-2, 23.2 µM (inactive); in the assay on SN12C it was 20.4 µM (inactive); with MOLT-4, 28.7 µM (inactive). Also, the GI50 in the assay with OVCAR-5 was 40.2 µM (inactive); in the assay with NCI-H460, 81.7 µM (inactive); in the assay on U-251 it was 23.2 µM (inactive); in the assay on Malme-3M, > 100 µM (inactive); with K562, 21.8 µM (inactive); in the assay on SF-295, > 100 µM (inactive). The GI50 is 62.5 µM (inactive) in the assay on SNB-19; 17 µM (inactive) in the assay on OVCAR-4; 21.7 µM (inactive) with NCI-H23; 19.5 µM (inactive) in the assay with PC-3; 32.4 µM (inactive) in the assay with SK-MEL-5; 21.6 µM (inactive) with HOP-92. For the same molecule, the GI50 with T47D was 16.3 µM (inactive).

With `O=C(Cc1ccccc1)NNc1nc(NNC(=O)c2ccncc2)nc(Nc2ccc([N+](=O)[O-])cc2)n1`, the GI50 with EKVX is 9.46 µM (inactive); in the assay with 786-0, > 10 µM (inactive); in the assay on MDA-MB-231 it was > 10 µM (inactive); in the assay with SN12C, > 10 µM (inactive); with MOLT-4 it was > 10 µM (inactive); with OVCAR-5, > 10 µM (inactive). The GI50 in the assay with NCI-H460 was > 10 µM (inactive); with U-251, > 10 µM (inactive); in the assay on Malme-3M it was > 10 µM (inactive); in the assay on K562 it was 6.19 µM (inactive); with SF-295, > 10 µM (inactive); in the assay with SNB-19, 6.56 µM (inactive). The GI50 in the assay on OVCAR-4 is > 10 µM (inactive); with NCI-H23, 6.79 µM (inactive); in the assay on PC-3, 2.7 µM (inactive); in the assay on SK-MEL-5, > 10 µM (inactive); with HOP-92, > 10 µM (inactive); in the assay with T47D, > 10 µM (inactive).

As to `NC1CC(=O)c2sccc21` (centres undefined), the GI50 in the assay on EKVX was > 100 µM (inactive); in the assay with 786-0 it was > 100 µM (inactive); with MDA-MB-231 it was > 100 µM (inactive); in the assay with SK-MEL-2 it was 27.9 µM (inactive); in the assay on SN12C it was > 100 µM (inactive); in the assay on MOLT-4, > 100 µM (inactive). Also, the GI50 with OVCAR-5 was > 100 µM (inactive); in the assay on U-251, > 100 µM (inactive); with K562 it was > 100 µM (inactive); in the assay with SF-295 it was > 100 µM (inactive); in the assay on RXF 393, 29.6 µM (inactive); in the assay on SNB-19, > 100 µM (inactive). The GI50 with OVCAR-4 was > 100 µM (inactive); in the assay on NCI-H23, > 100 µM (inactive); in the assay on PC-3, 56.4 µM (inactive); in the assay on SK-MEL-5, > 100 µM (inactive); with HOP-92 it was > 100 µM (inactive); with T47D, > 100 µM (inactive).
